Values of other authors as cited in patent publication US20130165511A1, “TREATMENT FOR COCAINE ADDICTION” (priority 2010, published 2013).

Assays:
ALDH-I = target: T1, ALDH-I (Homo sapiens, UniProt P05091)
T1 sequence (P05091 18-517): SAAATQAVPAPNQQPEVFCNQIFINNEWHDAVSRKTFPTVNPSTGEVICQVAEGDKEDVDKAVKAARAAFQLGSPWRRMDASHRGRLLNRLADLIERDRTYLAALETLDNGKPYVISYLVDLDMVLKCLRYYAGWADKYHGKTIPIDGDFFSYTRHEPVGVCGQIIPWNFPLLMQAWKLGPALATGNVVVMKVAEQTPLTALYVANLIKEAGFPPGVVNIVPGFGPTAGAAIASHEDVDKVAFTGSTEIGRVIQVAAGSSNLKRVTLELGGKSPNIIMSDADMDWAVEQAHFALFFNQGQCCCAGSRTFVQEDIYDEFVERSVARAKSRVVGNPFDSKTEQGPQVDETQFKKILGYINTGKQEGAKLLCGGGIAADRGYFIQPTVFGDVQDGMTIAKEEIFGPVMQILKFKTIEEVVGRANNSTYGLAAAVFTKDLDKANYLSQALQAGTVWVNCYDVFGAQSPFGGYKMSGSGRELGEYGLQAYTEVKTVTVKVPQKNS

CYP2D6 = CYP2D6 (Homo sapiens, UniProt P10635)
CYP2C19 = CYP2C19 (Homo sapiens, UniProt P33261)
CYP2B6 = target: T2, CYP2B6 (Homo sapiens, UniProt P20813)
T2 sequence (P20813 1-491): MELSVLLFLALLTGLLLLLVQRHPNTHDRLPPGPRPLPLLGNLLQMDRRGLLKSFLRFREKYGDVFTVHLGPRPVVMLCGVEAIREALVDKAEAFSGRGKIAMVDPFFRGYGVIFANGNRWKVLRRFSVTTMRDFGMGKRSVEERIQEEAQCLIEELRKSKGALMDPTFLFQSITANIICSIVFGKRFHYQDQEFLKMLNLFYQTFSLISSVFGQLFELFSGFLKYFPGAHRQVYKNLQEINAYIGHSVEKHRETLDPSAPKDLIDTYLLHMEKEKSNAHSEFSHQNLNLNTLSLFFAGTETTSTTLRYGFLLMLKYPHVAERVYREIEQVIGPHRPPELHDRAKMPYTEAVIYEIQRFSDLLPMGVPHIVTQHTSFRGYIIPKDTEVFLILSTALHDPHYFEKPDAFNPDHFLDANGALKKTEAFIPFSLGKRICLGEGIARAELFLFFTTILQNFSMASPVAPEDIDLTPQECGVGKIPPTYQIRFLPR

ALDH-II = target: T3, ALDH-II (Homo sapiens, UniProt P00352)
T3 sequence (P00352 1-501): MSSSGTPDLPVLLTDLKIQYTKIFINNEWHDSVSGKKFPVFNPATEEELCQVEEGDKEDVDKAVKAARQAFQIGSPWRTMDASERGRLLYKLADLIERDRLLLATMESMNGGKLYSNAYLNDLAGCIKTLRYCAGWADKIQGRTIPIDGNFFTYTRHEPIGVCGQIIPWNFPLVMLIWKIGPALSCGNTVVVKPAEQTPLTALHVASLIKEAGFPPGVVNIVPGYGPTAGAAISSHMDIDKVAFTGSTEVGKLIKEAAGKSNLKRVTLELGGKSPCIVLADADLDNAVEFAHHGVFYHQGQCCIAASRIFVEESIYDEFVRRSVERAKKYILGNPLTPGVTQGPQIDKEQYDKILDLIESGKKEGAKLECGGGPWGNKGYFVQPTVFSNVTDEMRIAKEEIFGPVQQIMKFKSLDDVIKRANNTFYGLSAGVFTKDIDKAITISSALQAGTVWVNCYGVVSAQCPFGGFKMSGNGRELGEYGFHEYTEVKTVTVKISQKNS

[1] = 10 mg CR, double-blind randomized study of 134 subjects with cocaine dependence, post hoc analyses
[2] = animal studies, dosage range 0.001-1.0 mg/kg
ALDH = settings: rat studies
[3] = rat studies

Sequence of CYP2D6 (P10635 whole entry): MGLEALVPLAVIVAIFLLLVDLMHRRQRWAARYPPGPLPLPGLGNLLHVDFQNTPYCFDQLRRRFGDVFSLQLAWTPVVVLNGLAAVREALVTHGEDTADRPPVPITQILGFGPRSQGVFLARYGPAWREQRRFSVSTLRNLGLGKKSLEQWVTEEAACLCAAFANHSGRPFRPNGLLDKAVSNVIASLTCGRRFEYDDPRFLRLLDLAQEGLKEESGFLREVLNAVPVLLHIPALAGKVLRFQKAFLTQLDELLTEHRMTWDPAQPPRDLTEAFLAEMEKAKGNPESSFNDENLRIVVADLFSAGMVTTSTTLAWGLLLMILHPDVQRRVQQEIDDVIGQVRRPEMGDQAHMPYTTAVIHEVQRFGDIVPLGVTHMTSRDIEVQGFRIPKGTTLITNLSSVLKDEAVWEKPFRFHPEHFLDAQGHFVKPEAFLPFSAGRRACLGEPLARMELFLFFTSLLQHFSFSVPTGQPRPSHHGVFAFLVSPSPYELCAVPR
Sequence of CYP2C19 (P33261 whole entry): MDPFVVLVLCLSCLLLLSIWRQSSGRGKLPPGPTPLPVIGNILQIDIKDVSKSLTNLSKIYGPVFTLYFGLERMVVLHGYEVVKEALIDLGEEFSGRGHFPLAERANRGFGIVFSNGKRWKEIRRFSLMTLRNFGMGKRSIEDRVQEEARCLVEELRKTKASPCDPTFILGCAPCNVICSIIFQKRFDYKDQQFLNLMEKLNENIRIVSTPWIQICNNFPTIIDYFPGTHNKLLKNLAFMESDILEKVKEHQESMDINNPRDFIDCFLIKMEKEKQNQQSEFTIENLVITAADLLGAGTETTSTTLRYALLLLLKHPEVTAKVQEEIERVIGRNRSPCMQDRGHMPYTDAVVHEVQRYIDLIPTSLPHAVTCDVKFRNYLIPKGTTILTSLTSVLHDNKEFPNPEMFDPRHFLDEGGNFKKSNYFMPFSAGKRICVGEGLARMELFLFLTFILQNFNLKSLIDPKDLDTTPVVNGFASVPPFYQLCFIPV

## O=c1c(-c2ccc(O)cc2)coc2cc(O[C@@H]3O[C@H](CO)[C@@H](O)[C@H](O)[C@H]3O)ccc12 [Daidzin, daidzin]
ALDH-I
  inhibition of ALDH-I: selective potent reversible inhibitor

## C#CCNC(C)Cc1ccccc1 (centres unmarked) [N-des methyl selegiline]
CYP2D6
  inhibition of CYP2D6: concentration dependent inhibition
CYP2C19
  inhibition of CYP2C19: concentration dependent inhibition
CYP2B6
  inhibition of CYP2B6: concentration dependent inhibition

## N#CN [cyanamide]
ALDH-I; in vitro
  inhibition of ALDH-I in vitro: unable to inhibit
ALDH-II
  inhibition of ALDH-II in vitro: unable to inhibit

## C#CCN(C)[C@H](C)Cc1ccccc1 [selegiline]
10 mg CR formulation, eight subjects
  self-reported 'high' and 'stimulated' feelings after cocaine administration, area under the curve: decreased
Selegiline 10 mg po/day followed by acute cocaine infusion, PET study
  reduction in subjective euphoria: 40%
[1]
  composite score of urine benzoylecgonine (BE), self report and observed improvement: statistically significant effect
CYP2D6
  inhibition of CYP2D6: concentration dependent inhibition
CYP2B6
  inhibition of CYP2B6: concentration dependent inhibition
[2]
  safety and abuse potential: safe agent without potential abuse

## N5-(hydroxycyclopropyl)-L-glutamine [coprine]
ALDH
  ALDH inhibition compared to disulfiram: more potent inhibitor
[3]
  ethanol consumption: effectively suppressed
